# Reference: patent US4725581A, “New peptide compounds having a lactone or cycloamide structure” (ADIR et Compagnie, priority 1985, dated 1988)
# Experiments:
# Assay type in all cases: in vivo
# [1] = tested on: cerebral AMPc; experiment: Stimulation of the synthesis of cerebral AMPc; details: mice OF1/IFFA-Credo, 10 mg/kg intraperitoneally, five minutes after injection
# Method: The compounds to be tested are administered intraperitoneally at a dose of 10 mg/kg to mice of strain OF1 /IFFA-Credo.
# Five minutes after injection, the animals are sacrificed by freezing and the AMPc present in the cerebral structures is measured by radio immunology according to the Amersham method (specific binding protein).
# [2] = tested on: rats; experiment: Increase in the latency of the onset of sleep induced by Pentobarbital; details: 10 mg/kg i.p. before pentobarbital 40 mg/kg i.p.
# Method: Pentobarbital, injected in rats at a dose of 40 mg/kg i.p., induces the onset of sleep.
# [3] = tested on: mice; experiment: Potentialisation of the toxicity of Yohimbine; details: Yohimbine alone 35 mg/kg i.p.
# Method: Yohimbine, injected to mice at a dose of 35 mg/kg i.p. causes the death of 10% to 30% treated animals. The compounds of the invention administered at a dose of 10 mg/kg i.p. 15 minutes before the injection of Yohimbine increase the rate of mortality (+80% with compounds of examples 5 and 7).
SMILES,increase of the intracerebral content of AMPc [1],effect on the onset of sleep induced by pentobarbital (in words) [2],death of treated animals [3]
"NC(=O)[C@@H]1CCCN1C(=O)[C@H](Cc1c[nH]cn1)NC(=O)[C@@H]1CCC(=O)N1 [TRH, pyroglutamylhistidyl-prolinamide]",46%,inactive,
COC(=O)[C@@H]1[C@H]2C[C@H]3c4[nH]c5ccccc5c4CCN3C[C@@H]2CC[C@@H]1O [Yohimbine],,,10% to 30
